#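 Tested at 5 concentrations; 48 h exposure; 96-well plates; endpoints linearly interpolated, else capped at highest concentration. TGI denotes the concentration required for complete inhibition of growth.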
# Columns and labels:
# Experiment in all cases: NCI tumour cell line growth inhibition, 48 h
# SK-MEL-5 melanoma = test system: SK-MEL-5 melanoma
# M19-MEL melanoma = test system: M19-MEL melanoma
# HL-60(TB) leukemia = test system: HL-60(TB) leukemia
# DMS 273 small cell lung = test system: DMS 273 small cell lung
# NCI-H460 lung = test system: NCI-H460 lung
# HCT-116 colon = test system: HCT-116 colon
# LOX IMVI melanoma = test system: LOX IMVI melanoma
# SN12C renal = test system: SN12C renal
# IGROV1 ovarian = test system: IGROV1 ovarian
# SK-MEL-28 melanoma = test system: SK-MEL-28 melanoma
# HCT-15 colon = test system: HCT-15 colon
# SNB-78 CNS = test system: SNB-78 CNS
# HOP-62 NSCLC = test system: HOP-62 NSCLC
# OVCAR-8 ovarian = test system: OVCAR-8 ovarian
# HT29 colon = test system: HT29 colon
# SK-OV-3 ovarian = test system: SK-OV-3 ovarian
# SNB-19 CNS = test system: SNB-19 CNS
# NCI-H226 lung = test system: NCI-H226 lung
# KM20L2 colon = test system: KM20L2 colon
# OVCAR-4 ovarian = test system: OVCAR-4 ovarian
# XF 498 CNS = test system: XF 498 CNS
# M14 melanoma = test system: M14 melanoma
# ACHN renal = test system: ACHN renal
# NCI-H23 lung = test system: NCI-H23 lung
# OVCAR-3 ovarian = test system: OVCAR-3 ovarian
# HOP-92 NSCLC = test system: HOP-92 NSCLC
# NCI-H522 lung = test system: NCI-H522 lung
# U251 CNS = test system: U251 CNS
# UACC-257 melanoma = test system: UACC-257 melanoma
# CAKI-1 renal = test system: CAKI-1 renal
# SF-295 CNS = test system: SF-295 CNS
# SW-620 colon = test system: SW-620 colon
# LXFL 529 NSCLC = test system: LXFL 529 NSCLC
# OVCAR-5 ovarian = test system: OVCAR-5 ovarian
# A498 renal = test system: A498 renal
# 786-0 renal = test system: 786-0 renal
# KM12 colon = test system: KM12 colon
# SNB-75 CNS = test system: SNB-75 CNS
# EKVX NSCLC = test system: EKVX NSCLC
# RXF 393 renal = test system: RXF 393 renal
# TK-10 renal = test system: TK-10 renal
# SF-268 CNS = test system: SF-268 CNS
# HOP-18 NSCLC = test system: HOP-18 NSCLC
# DLD-1 colon = test system: DLD-1 colon
# A549 NSCLC = test system: A549 NSCLC
# CCRF-CEM leukemia = test system: CCRF-CEM leukemia
# MALME-3M melanoma = test system: MALME-3M melanoma
# DMS 114 small cell lung = test system: DMS 114 small cell lung
# K-562 leukemia = test system: K-562 leukemia
# UACC-62 melanoma = test system: UACC-62 melanoma
# MOLT-4 leukemia = test system: MOLT-4 leukemia
# UO-31 renal = test system: UO-31 renal
# SF-539 CNS = test system: SF-539 CNS
# HCC-2998 colon = test system: HCC-2998 colon
# COLO 205 colon = test system: COLO 205 colon
# SR leukemia = test system: SR leukemia
# SK-MEL-2 melanoma = test system: SK-MEL-2 melanoma
# RPMI-8226 leukemia = test system: RPMI-8226 leukemia
structure (smiles),measurement,setting,value
NC(=O)c1ccc(Cl)c([N+](=O)[O-])c1,TGI,SK-MEL-5 melanoma,> 100 µM
same,TGI,M19-MEL melanoma,> 100 µM
same,TGI,HL-60(TB) leukemia,> 100 µM
same,TGI,DMS 273 small cell lung,> 100 µM
same,TGI,NCI-H460 lung,> 100 µM
same,TGI,HCT-116 colon,> 100 µM
same,TGI,LOX IMVI melanoma,> 100 µM
same,TGI,SN12C renal,> 100 µM
same,TGI,IGROV1 ovarian,> 100 µM
same,TGI,SK-MEL-28 melanoma,> 100 µM
same,TGI,HCT-15 colon,> 100 µM
same,TGI,SNB-78 CNS,> 100 µM
same,TGI,HOP-62 NSCLC,> 100 µM
same,TGI,OVCAR-8 ovarian,> 100 µM
same,TGI,HT29 colon,> 100 µM
same,TGI,SK-OV-3 ovarian,> 100 µM
same,TGI,SNB-19 CNS,> 100 µM
same,TGI,NCI-H226 lung,> 100 µM
same,TGI,KM20L2 colon,> 100 µM
same,TGI,OVCAR-4 ovarian,> 100 µM
same,TGI,XF 498 CNS,> 100 µM
same,TGI,M14 melanoma,> 100 µM
same,TGI,ACHN renal,> 100 µM
same,TGI,NCI-H23 lung,> 100 µM
same,TGI,OVCAR-3 ovarian,> 100 µM
same,TGI,HOP-92 NSCLC,> 100 µM
same,TGI,NCI-H522 lung,> 100 µM
same,TGI,U251 CNS,> 100 µM
same,TGI,UACC-257 melanoma,> 100 µM
same,TGI,CAKI-1 renal,> 100 µM
same,TGI,SF-295 CNS,> 100 µM
same,TGI,SW-620 colon,> 100 µM
same,TGI,LXFL 529 NSCLC,> 100 µM
same,TGI,OVCAR-5 ovarian,> 100 µM
same,TGI,A498 renal,> 100 µM
same,TGI,786-0 renal,> 100 µM
same,TGI,KM12 colon,> 100 µM
same,TGI,SNB-75 CNS,> 100 µM
same,TGI,EKVX NSCLC,> 100 µM
same,TGI,RXF 393 renal,> 100 µM
same,TGI,TK-10 renal,> 100 µM
same,TGI,SF-268 CNS,> 100 µM
same,TGI,HOP-18 NSCLC,> 100 µM
same,TGI,DLD-1 colon,> 100 µM
same,TGI,A549 NSCLC,> 100 µM
same,TGI,CCRF-CEM leukemia,> 100 µM
same,TGI,MALME-3M melanoma,> 100 µM
same,TGI,DMS 114 small cell lung,> 100 µM
same,TGI,K-562 leukemia,> 100 µM
same,TGI,UACC-62 melanoma,> 100 µM
same,TGI,MOLT-4 leukemia,> 100 µM
same,TGI,UO-31 renal,> 100 µM
same,TGI,SF-539 CNS,> 100 µM
same,TGI,HCC-2998 colon,> 100 µM
same,TGI,COLO 205 colon,> 100 µM
O/N=C/c1ccc(O)c(O)c1,TGI,SK-MEL-5 melanoma,> 100 µM
same,TGI,M19-MEL melanoma,> 100 µM
same,TGI,HL-60(TB) leukemia,58.8 µM
same,TGI,DMS 273 small cell lung,> 100 µM
same,TGI,NCI-H460 lung,> 100 µM
same,TGI,HCT-116 colon,> 100 µM
same,TGI,LOX IMVI melanoma,> 100 µM
same,TGI,SN12C renal,> 100 µM
same,TGI,IGROV1 ovarian,> 100 µM
same,TGI,SK-MEL-28 melanoma,> 100 µM
same,TGI,HCT-15 colon,> 100 µM
same,TGI,SNB-78 CNS,> 100 µM
same,TGI,HOP-62 NSCLC,> 100 µM
same,TGI,OVCAR-8 ovarian,> 100 µM
same,TGI,HT29 colon,> 100 µM
same,TGI,SK-OV-3 ovarian,> 100 µM
same,TGI,SNB-19 CNS,> 100 µM
same,TGI,NCI-H226 lung,> 100 µM
same,TGI,KM20L2 colon,> 100 µM
same,TGI,OVCAR-4 ovarian,> 100 µM
same,TGI,XF 498 CNS,> 100 µM
same,TGI,M14 melanoma,> 100 µM
same,TGI,ACHN renal,> 100 µM
same,TGI,NCI-H23 lung,> 100 µM
same,TGI,OVCAR-3 ovarian,> 100 µM
same,TGI,HOP-92 NSCLC,> 100 µM
same,TGI,NCI-H522 lung,> 100 µM
same,TGI,U251 CNS,> 100 µM
same,TGI,UACC-257 melanoma,> 100 µM
same,TGI,CAKI-1 renal,> 100 µM
same,TGI,SF-295 CNS,> 100 µM
same,TGI,SW-620 colon,35.3 µM
same,TGI,SR leukemia,> 100 µM
same,TGI,LXFL 529 NSCLC,> 100 µM
same,TGI,OVCAR-5 ovarian,> 100 µM
same,TGI,A498 renal,> 100 µM
same,TGI,786-0 renal,> 100 µM
same,TGI,KM12 colon,> 100 µM
same,TGI,SNB-75 CNS,> 100 µM
same,TGI,EKVX NSCLC,> 100 µM
same,TGI,RXF 393 renal,> 100 µM
same,TGI,TK-10 renal,> 100 µM
same,TGI,SF-268 CNS,> 100 µM
same,TGI,DLD-1 colon,> 100 µM
same,TGI,A549 NSCLC,> 100 µM
same,TGI,CCRF-CEM leukemia,> 100 µM
same,TGI,SK-MEL-2 melanoma,> 100 µM
same,TGI,MALME-3M melanoma,> 100 µM
same,TGI,DMS 114 small cell lung,> 100 µM
same,TGI,K-562 leukemia,> 100 µM
same,TGI,UACC-62 melanoma,> 100 µM
same,TGI,MOLT-4 leukemia,> 100 µM
same,TGI,UO-31 renal,> 100 µM
same,TGI,SF-539 CNS,> 100 µM
same,TGI,HCC-2998 colon,> 100 µM
same,TGI,COLO 205 colon,> 100 µM
Cc1ncc(CI)c(CI)c1O,TGI,M19-MEL melanoma,> 100 µM
same,TGI,HL-60(TB) leukemia,5.29 µM
same,TGI,DMS 273 small cell lung,32.1 µM
same,TGI,NCI-H460 lung,> 100 µM
same,TGI,HCT-116 colon,31.4 µM
same,TGI,SN12C renal,35.2 µM
same,TGI,IGROV1 ovarian,> 100 µM
same,TGI,RPMI-8226 leukemia,31.4 µM
same,TGI,SK-MEL-28 melanoma,44.6 µM
same,TGI,SNB-78 CNS,> 100 µM
same,TGI,HOP-62 NSCLC,35.3 µM
same,TGI,SK-OV-3 ovarian,> 100 µM
same,TGI,NCI-H226 lung,6.1 µM
same,TGI,OVCAR-4 ovarian,> 100 µM
same,TGI,XF 498 CNS,38.4 µM
same,TGI,M14 melanoma,> 100 µM
same,TGI,NCI-H23 lung,48.2 µM
same,TGI,HOP-92 NSCLC,> 100 µM
same,TGI,NCI-H522 lung,12.7 µM
same,TGI,CAKI-1 renal,> 100 µM
same,TGI,SR leukemia,36.7 µM
same,TGI,LXFL 529 NSCLC,> 100 µM
same,TGI,A498 renal,> 100 µM
same,TGI,786-0 renal,35.3 µM
same,TGI,SNB-75 CNS,41.2 µM
same,TGI,SF-268 CNS,54.7 µM
same,TGI,DLD-1 colon,55.8 µM
same,TGI,CCRF-CEM leukemia,23.2 µM
same,TGI,SK-MEL-2 melanoma,42.4 µM
same,TGI,MALME-3M melanoma,42.5 µM
same,TGI,DMS 114 small cell lung,> 100 µM
same,TGI,K-562 leukemia,31.5 µM
same,TGI,UACC-62 melanoma,> 100 µM
same,TGI,MOLT-4 leukemia,41.6 µM
same,TGI,UO-31 renal,6.28 µM
same,TGI,SF-539 CNS,43.8 µM
same,TGI,HCC-2998 colon,33.3 µM
same,TGI,COLO 205 colon,> 100 µM
